{"source": "PubChem BioAssay (NCI)", "note": "Values joined by “and” are separate entries in the source; they are usually repeats but may differ in a detail not shown here. Equal values may be shown once.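 These data come from cells grown in 96-well plates and exposed to compound for 48 hours at five concentrations. GI50: concentration for 50% inhibition of growth. TGI is the concentration that stops growth completely.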"}
{"test_system": "MDA-MB-468 breast", "assay": "NCI-60 cell line screen, 48 h"}
{"smiles": "CCOC(=O)c1ccc(NC(=O)N2CC(C)OC(C)C2)cc1", "note": "(configuration not stated)", "GI50": "> 100000 nM", "TGI": "> 100000 nM"}
{"smiles": "O=C(NNc1nc(Cl)nc(N2CCN(C(c3ccccc3)c3ccccc3)CC2)n1)c1ccccc1", "GI50": "1900 nM", "TGI": "6030 nM"}
{"smiles": "O=c1oc2cc(OS(=O)(=O)c3ccc(F)cc3)ccc2c2c1CCCCC2", "GI50": "3870 nM", "TGI": "> 100000 nM"}
{"smiles": "COc1cc(C2CC(c3ccc(C)cc3)=NN2C=O)ccc1Oc1ccnc2cc(Cl)ccc12", "note": "(configuration not stated)", "GI50": "2590 nM", "TGI": "37800 nM"}
{"smiles": "Cc1ccc(CNc2c3ccccc3nc3ccccc23)cc1", "GI50": "1490 nM", "TGI": "3680 nM"}
{"smiles": "COc1cc(-c2nn(-c3ccc(NC(=O)c4ccc(Cl)c(Cl)c4)cc3)cc2-c2ccncc2)ccc1Cl", "GI50": "4350 nM", "TGI": "> 100000 nM"}
{"smiles": "COc1cc(C2C=C(c3cccc(NC(C)=O)c3)Nc3ncnn32)cc(OC)c1OC", "note": "(configuration not stated)", "GI50": "852 nM", "TGI": "> 23800 nM"}
{"smiles": "CCN(CC)CCOc1nc2ccc(OC)cc2c2c1-c1ccc(OC)cc1C2=O", "GI50": "3370 nM", "TGI": "21700 nM"}
{"smiles": "COc1ccc2nc(N/N=C(\\C)c3ccccn3)cc(C)c2c1", "GI50": "233 nM", "TGI": "815 nM"}
{"smiles": "O=[N+]([O-])C1C(c2ccccc2)C12c1ccccc1-c1ccccc12", "note": "(configuration not stated)", "GI50": "582 nM", "TGI": "13600 nM"}
{"smiles": "O=C(CCCCCCSc1nc(-c2ccccc2)cc(-c2ccc(Cl)cc2)n1)NO", "GI50": "2020 nM", "TGI": "5790 nM"}
{"smiles": "CCOc1cc2ncc(C#N)c(Nc3ccc(OCc4cccc(F)c4)c(Cl)c3)c2cc1NC(=O)CC1CCSS1", "note": "(configuration not stated)", "GI50": "427 nM", "TGI": "1220 nM"}
{"smiles": "Cc1ccc(-[n+]2c3cc(N)c(C)cc3nc3cc(C)c(Nc4ccccc4)cc32)cc1", "GI50": "108 nM", "TGI": "371 nM"}
{"smiles": "COc1ccc(-c2nn3ncccc3c2-c2ccnc(Nc3ccc(Cl)c(C(F)(F)F)c3)n2)cc1", "GI50": "5810 nM", "TGI": "> 20900 nM"}
{"smiles": "CNc1ccc2nc3ccc(=[N+](C)C)cc-3sc2c1", "GI50": "801 nM and 542 nM", "TGI": "2890 nM and 3050 nM"}
{"smiles": "C=C1CC2(OC1=O)C(=O)N(CCCCCCCN1C(=O)C3(CC(=C)C(=O)O3)c3ccccc31)c1ccccc12", "note": "(configuration not stated)", "GI50": "984 nM", "TGI": "3740 nM"}
{"smiles": "CCOC(=O)c1c2c(n3ccc(NC(=O)CCN4CCCC4)cc13)C(=O)c1ncccc1C2=O", "GI50": "1710 nM", "TGI": "3350 nM"}
{"smiles": "COc1ccc(Cl)cc1Nc1nc(C(F)(F)F)ccc1C(=O)N/N=C/c1c(Cl)cccc1Cl", "GI50": "6660 nM", "TGI": "> 100000 nM"}
{"smiles": "O=C(Nc1ccc(N2CCNCC2)cc1)c1[nH]ncc1Nc1ncnc2sc3c(c12)CCC3", "GI50": "481 nM", "TGI": "2230 nM"}
{"smiles": "COc1ccc(-c2nc3sc(C)cn3c2/C=C/C(=O)c2cc(OC)c(OC)c(OC)c2)cc1", "GI50": "2760 nM", "TGI": "9350 nM"}
{"smiles": "COc1ccc2c(c1)[nH]c(=O)c1c3cc(C)c(C)cc3cn21", "GI50": "155 nM", "TGI": "1590 nM"}
{"smiles": "CS(=O)(=O)CCNCc1nc(-c2ccc3ncnc(Nc4ccc(F)c(Cl)c4)c3c2)cs1", "GI50": "257 nM", "TGI": "2750 nM"}
{"smiles": "COC(=O)N[C@H]1CCc2c(Br)c(OC)c(OC)c(OC)c2-c2ccc(SC)c(=O)cc21", "GI50": "< 10 nM", "TGI": "1230 nM"}
{"smiles": "COc1cc2c(cc1OC)C(=O)/C(=C/c1cccc(OCC(=O)c3ccccc3)c1)C2", "GI50": "8210 nM", "TGI": "> 100000 nM"}
{"smiles": "Cc1cc(-c2ncc(CC(=O)Nc3ccc(-c4cnccn4)cn3)cc2C)ccn1", "GI50": "3180 nM", "TGI": "57500 nM"}
{"smiles": "C=C1C(=O)O[C@H]2[C@H]1CC/C(COC(=O)c1cc3cc(F)ccc3[nH]1)=C\\CC[C@@]1(C)O[C@@H]21", "GI50": "1860 nM", "TGI": "3790 nM"}
{"smiles": "COc1cc(/C(C#N)=C/c2ccc3c(c2OC)OCO3)cc2c1OCO2", "GI50": "59.2 nM", "TGI": "2070 nM"}
{"smiles": "CN(C)c1cccc2c(S(=O)(=O)N[C@H]3CC[C@H]4[C@@H]5CCc6cc(O)ccc6[C@H]5CC[C@]34C)cccc12", "GI50": "2100 nM", "TGI": "9710 nM"}
{"smiles": "COCCOc1ccc2ncc(C#Cc3cncc(C(=O)Nc4ccc(CN5CCN(C)CC5)c(C(F)(F)F)c4)c3)n2n1", "GI50": "988 nM", "TGI": "2800 nM"}
{"smiles": "O=C(CSc1nc2ccccc2[nH]1)Nc1ccc(-c2nc3ccccc3s2)c(Cl)c1", "GI50": "4450 nM", "TGI": "> 100000 nM"}
{"smiles": "CC(=O)Nc1ccc2c(c1)c(C1=C(c3cn(C)c4ccccc34)C(=O)NC1=O)cn2C", "GI50": "790 nM", "TGI": "> 25000 nM"}
{"smiles": "C=C1C(=O)O[C@H]2[C@H]1CC/C(Cn1cc(CNC(=O)Cc3cn(C(=O)c4ccc(Cl)cc4)c4ccc(OC)cc34)nn1)=C\\CC[C@@]1(C)O[C@@H]21", "GI50": "1220 nM", "TGI": "2950 nM"}
{"smiles": "CNC(=O)c1cc(OC2CCC(NC(=O)Nc3ccc(Cl)c(C(F)(F)F)c3)CC2)ccn1", "note": "(configuration not stated)", "GI50": "3350 nM", "TGI": "14500 nM"}
{"smiles": "O=C1NCc2ccc3c(-c4cccc(Cl)c4)c[nH]c3c21", "GI50": "231 nM", "TGI": "> 23100 nM"}
{"smiles": "Cc1ccc2[nH]cc(-c3nc(-c4c[nH]c5ncccc45)cs3)c2c1", "GI50": "> 100000 nM", "TGI": "> 100000 nM"}
{"smiles": "CC(=O)O[C@H]1CC[C@@]2(C)C(=CC[C@@H]3[C@@H]2CC[C@]2(C)C(c4cccnc4)=CC[C@@H]32)C1", "GI50": "2620 nM", "TGI": "17500 nM"}
